According to patent publication US20070048329A1, “Epstein barr virus peptide epitopes, polyepitopes and delivery system therefor” (priority 2002, published 2007):
“Also recorded” adds a separate entry of the source.

B1: SEQ ID NO:81: polyepitope protein of thirteen contiguous LMP1 and LMP2 CTL epitopes (protein)
chain: MPYLFWLAAISSCSSCPLSKITYGPVFMCLRRRWRRLTVLLSAWILTALTAGFLIFLCLGGLLTMVVMSNTLLSAWIEDPPFNSLYLLEMLWRLYLQQNWWTLALLVLYSFALIALYLQQNW

How the values were obtained:
[1] = system: peptide-sensitised PHA blasts and LCLs; experiment: 51Cr-release cytotoxicity assay with peptide-specific CTL lines and clones; type: cell-based, human; settings: serial dilutions of peptide, compared with wild-type YLLEMLWRL, CTL clone SB7
Procedure: Polyclonal CTL lines and LMP1-specific CTL clones were established according to previously published methods (Moss 1988; Khanna 1998). Briefly, 2×10^6 PBMCs were stimulated with 1×10^6 autologous lymphocytes (responder to stimulator ratio of 2:1) pulsed with 10 μM peptide for 1 hr in 2 ml in a 24-well plate. After 3 days, culture medium with IL-2 (10 U/ml) was added and the cells were further expanded. These lymphocytes were restimulated on day 7 with γ-irradiated (8000 rad) autologous LCLs. After 10 days in culture medium, the cells were used as polyclonal effectors in a standard ^51Cr-release assay against peptide-sensitised autologous PHA blasts.
To generate peripheral blood CTL clones specific for the LMP1 derived peptides, PBMCs of healthy donors were reactivated (2×10^6) PBMCs with peptide-sensitised (10 ug of peptide/ml) autologous lymphocytes (1×10^6) in 2 ml wells of a 24-well plate in culture medium. After 3 days, the cells were seeded onto 0.35% agarose and maintained in T cell growth medium containing rIL2 (50 IU/ml). After another 3 days, growing clones were transferred to 96-well round-bottom tissue culture plates (Life Technologies) and cultured in T cell growth medium containing rIL2 (50-100 IU/ml).
Target cells were pre-sensitized with synthetic peptide epitopes and then incubated with ^51Cr for 90 min. Following incubation, these cells were washed in growth medium and used as targets in a standard 5 h ^51Cr-release assay (Moss, 1988)
To further characterize the minimal T cell epitopes defined by ELISPOT assays we generated polyclonal and clonal CTL lines specific for these epitopes. PBMCs from the healthy seropositive donors were stimulated with synthetic peptide epitopes and the CTL clones or polyclonal lines were established and tested in standard ^51Cr-release assays. The […] peptide-specific CTL clones were generated using initial stimulation with peptide-sensitized autologous PBMC followed by continuous restimulation with irradiated autologous LCL. These CTL clones were screened for […]-specific CTL activity by ^51Cr release assays against peptide-sensitised autologous and allogeneic PHA blast and LCLs. […] Titration of this minimal epitope on autologous PHA blasts further confirmed the fine specificity of this CTL clone (FIG. 5B).

[2] = target: HLA A2 (Homo sapiens, UniProt P04439, D140Y/D185E/D98H/E176V/E277Q/G131W/G231S/I119V/I121R/I166T/I218V/L300P/L318F/N151K/N90K/P208A/P217A/Q86G/Q94H/R138H/R169H/T345S); experiment: MHC stabilisation assay on T2 cells; type: cell-based; parameters: endogenous in cells; host or cells: T2 (.174×CEM.T2), TAP-negative B×T hybrid cell line; settings: 14-16 h at 26° C. then 2-3 h at 37° C., FACS
Procedure: FIG. 7: A: CTL recognition of variant and prototypic BLA A2-restricted LMP1 epitope […]. PHA blasts were sensitized with serial dilutions of each of the peptides and then exposed to either the […]-specific CTL clone, SB7. B: MHC stabilization analysis on T2 cells using variant and prototypic HLA A2-restricted LMP1 epitope. T2 cells were initially incubated with 200 μl of each of the peptides (10 μg/ml) for 14-16 h at 26° C. followed by incubation at 37° C. for 2-3 h. HLA A2 expression on these cells was analysed by FACS using HLA A2-specific monoclonal antibody.
To assess MHC binding by the HLA A2-restricted LMP1 epitope variants from EBV isolates, T2 cells (2×10^5) were incubated with 200 μl of each of the peptides (100 μg/ml) at 26° C. for 14-16 h, followed by incubation at 37° C. for 2-3 h. After the incubations, HLA A2 expression was measured by FACS using a specific monoclonal antibody (HB82, ATCC).

[3] = system: CD8+ CTL; experiment: Immunization of HLA A2/K^b transgenic mice, epitope-specific T cell responses; settings: mouse, in vivo
Text: HLA A2/K^b transgenic mice used in this study have been described elsewhere (Theobald 1997). These mice express a chimeric class I molecule composed of the alpha 1 & 2 domains of the human A*0201 allele and the alpha 3 domains of the mouse H-2K^b class I molecules. These mice were vaccinated intraperitoneally with 10^8 plaque forming units of recombinant Ad5-LMPpoly or a control adenovirus. After 3 weeks, splenocytes were harvested and tested for epitope-specific T cell responses. These T cell responses were assessed using ELISPOT and in vivo CTL assays as herein described.

Row | Molecule | sensitizing autologous PHA blast to lysis by YLLEMLWRL-specific CTL clone [1] | HLA A2 expression on T2 cells (HLA A2 binding) [2] | CD8+ CTL responses in polyepitope-immunized mice [3]
1 | YFLEILWRL [variant of […] dominant in South-East Asian EBV isolates] | poorly recognized | unable to rescue HLA A2 expression; also recorded: significant loss in HLA A2 binding | –
2 | YLLEILWRL | recognized as efficiently as the wild-type epitope | significantly increased MHC expression on T2 cells | –
3 | B1 | – | – | induce CD8+CTL responses
